{"source": "paper PMC9323733", "about": "“Efficacy of Vafidemstat in Experimental Autoimmune Encephalomyelitis Highlights the KDM1A/RCOR1/HDAC Epigenetic Axis in Multiple Sclerosis” (Pharmaceutics, 2022)", "type_in_all_cases": "in vivo, mouse", "key": {"[1]": {"test_system": "spleen and lymph nodes of EAE mice", "experiment": "EAE, cell number in spleen and lymph nodes, flow cytometry of CD4 T cells", "settings": "ORY-2001 0.5 mg/kg; for CD4+ T cell population of the lymph nodes / cellularity in lymph nodes / number of effector T cells in lymph nodes: FTY720 1.0 mg/kg", "source_text": "(§1) For mechanistic studies in the EAE model, animals were divided into two groups, and samples were collected on day 26 post-immunization (sub-chronic phase), 3 days after the last dose, or on day 17 post-immunization for evaluating the effector phase. For this, mice were euthanized by intracardiac perfusion with saline (0.9%NaCl in H2O MilliQ) after pentobarbital anesthesia (Doletal), and blood samples, spleen, draining lymph nodes (DLNs: cervical, inguinal and axillary), brain, and spinal cord were removed. Serum samples were used for autoantibodies determination. Single-cell suspensions were obtained from spleen or pooled DLNs and used for the determination of cell number and auto-reactive and inflammatory responses, as described later. Brain and spinal segments of the cervical and lumbar regions were prepared separately and processed for RNA isolation, protein extraction, and histopathological analysis. Proteins were extracted from cervical and lumbar segments of spinal cord and brain from EAE mice via homogenization (50 mg tissue/mL) in lysis buffer (50 mM Tris-HCl, pH 7.4, 0.5 mM DTT, and 10 µg/mL proteinase inhibitors PMSF, pepstatin, and leupeptin). Samples were centrifuged (20.000× g, 15 min, 4 °C), and the supernatants were assayed for protein concentration (using Bradford method) and for cytokine/chemokine contents by using specific sandwich ELISAs according to manufacturer’s recommendations (BD Bioscience, Heidelberg, Germany and Peprotech, London, UK). In the TMEV model on day 86 after infection, mice were anesthetized and perfused transcardially, as described above. Spinal cords were obtained via extrusion with saline and prepared for further study.\nFor the identification of naïve, memory, and effector T cells, lymph nodes were isolated from different EAE groups at the peak of the disease. Cells were collected and distributed into polystyrene tubes for flow cytometry at 0.5 × 10^6 cells/tube and washed twice with washing buffer (10% FBS, 1% sodium azide in PBS; 300 g 5 min 4 °C). Before specific staining, cells were blocked with mouse BD Fc block to avoid nonspecific binding to Fc- receptors and marked with 7-AAD (7-amino-actinomycin D, Calbiochem, San Diego, CA, USA) to distinguish dead cells. Then, cells were incubated with PerCP/Cy5.5 conjugated anti-CD4, APC conjugated anti- CD62L (2 µg/mL), and PE conjugated anti-CD44 mAbs (0.5 µg/mL), following manufacturer’s recommendations (BioLegend) (Supplementary Materials Table S4). Briefly, after washing, cells were stained for 30 min at 4 °C, washed again, and analyzed in a FACSCalibur flow cytometer (BD Pharmingen, Le Pont-de-Claix, France). We used isotype-matched antibodies as controls."}, "spinal cord of EAE mice": {"test_system": "spinal cord of EAE mice", "experiment": "EAE, inflammatory mediators in spinal cord protein extracts (ELISA)", "settings": "ORY-2001 0.5 mg/kg; for IFNγ and IP-10 levels in spinal cord / IL-1β levels in spinal cord: disease peak, FTY720 1.0 mg/kg", "source_text": "as §1"}, "[2]": {"test_system": "C57BL/6 mice with chronic EAE", "experiment": "Chronic EAE induced by MOG35–55, clinical score", "settings": "for mean clinical score: EAE effector phase, p.o. 5 days from day 12, FTY720 1.0 mg/kg", "experimental": "Mice also received i.p. injections of 200 ng of pertussis toxin on days 0 and 2 [32]. Immunized mice were randomly distributed in different groups. […] MPTP is a prodrug which is converted to the neurotoxin 1-methyl-4-phenylpyridinium (MPP+) by MAO-B in vivo.\nCompounds were administered once daily for five consecutive days in two cycles, from day 12 to 16 and from day 19 to 23 post-immunization. […] HPβCD was included to facilitate dissolution. Mice were scored daily for signs of EAE according to the following clinical scoring system: 0, no clinical signs; 0.5, partial loss of tail tonicity; 1, complete loss of tail tonicity; 2, flaccid tail and abnormal gait; 3, complete hind leg paralysis; 4, hind leg paralysis with hind body paresis; 5, hind and foreleg paralysis; and 6, death. Intermediate phenotypes were scored as a half integer. Animals were sacrificed when they kept a score of 5 more than 24 h. Investigators which administered the compounds and scored the animals were blinded to the treatments."}, "[3]": {"settings": "EAE experiment 2, 0.5 or 1 mg/kg ORY-2001"}}}
{"compound": "CCCCCCCCc1ccc(CCC(N)(CO)CO)cc1", "note": "[FTY720, Fingolimod, reference compound]", "values": [{"measurement": "CD4+ T cell population of the lymph nodes", "setting": "[1]; day 17", "result": "increased the CD^4+ T cell population of the lymph nodes"}, {"measurement": "cellularity in lymph nodes", "setting": "[1]; day 17", "result": "increased the cellularity in lymph nodes"}, {"measurement": "number of effector T cells in lymph nodes", "setting": "[1]; day 17", "result": "significantly increased"}, {"measurement": "IFNγ and IP-10 levels in spinal cord", "setting": "spinal cord of EAE mice", "result": "this decrease did not reach significance"}, {"measurement": "IL-1β levels in spinal cord", "setting": "spinal cord of EAE mice", "result": "showed the same tendency"}, {"measurement": "mean clinical score", "setting": "[2]; ORY-2001 0.5 mg/kg", "result": "reduced the mean clinical score"}]}
{"compound": "Nc1nnc(CN[C@@H]2C[C@H]2c2ccc(OCc3ccccc3)cc2)o1", "note": "[ORY-2001]", "values": [{"measurement": "cellularity in spleen", "setting": "[1]; day 17", "result": "increased it significantly in the spleen"}, {"measurement": "CD4+ T cell population of the lymph nodes", "setting": "[1]; day 17", "result": "increased the CD^4+ T cell population of the lymph nodes"}, {"measurement": "cellularity in lymph nodes", "setting": "[1]; day 17", "result": "increased the cellularity in lymph nodes"}, {"measurement": "number of effector T cells in lymph nodes", "setting": "[1]; day 17", "result": "significantly increased"}, {"measurement": "number of immune cells in spleen and lymph nodes", "setting": "[1]; day 26, ORY-LSD1 180 µg/kg", "result": "significant increase in the number of immune cells"}, {"measurement": "IFNγ, IL-17 and IP-10 levels in spinal cord", "setting": "spinal cord of EAE mice; day 26, ORY-LSD1 180 µg/kg", "result": "no significant changes"}, {"measurement": "IL-4 levels in spinal cord", "setting": "spinal cord of EAE mice; day 26, ORY-LSD1 180 µg/kg", "result": "significant increase in the levels of IL-4"}, {"measurement": "IFNγ and IP-10 levels in spinal cord", "setting": "spinal cord of EAE mice", "result": "this decrease did not reach significance"}, {"measurement": "IL-1β levels in spinal cord", "setting": "spinal cord of EAE mice", "result": "significantly reduced the exacerbated levels of IL-1β"}, {"measurement": "mean clinical score", "setting": "[2]; ORY-2001 0.5 mg/kg", "result": "reduced the mean clinical score"}, {"measurement": "animals with mild clinical signs (clinical score ≤ 2)", "setting": "[2]; EAE experiment 1 (severe), p.o. ORY-2001 1 mg/kg", "result": 60, "unit": "%"}, {"measurement": "effect on disease severity", "setting": "[2]; EAE experiment 1 (severe), p.o. ORY-2001 1 mg/kg, ORY-LSD1 180 µg/kg", "result": "significantly reduced disease severity"}, {"measurement": "animals with severe manifestations/signs of the disease", "setting": "[2]; EAE experiment 1 (severe), p.o. ORY-2001 1 mg/kg, ORY-LSD1 180 µg/kg (maximum clinical score ≥ 4.0)", "result": 10, "unit": "%"}, {"measurement": "mean maximum clinical score", "setting": "[2]; EAE experiment 1 (severe), p.o. ORY-2001 1 mg/kg, ORY-LSD1 180 µg/kg, days 12-16 and 19-23", "result": 1.8}, {"measurement": "mice with no or only mild clinical signs at the end of the study", "setting": "[2]; EAE experiment 2", "result": "70–80%"}, {"measurement": "effect on clinical course / disease severity", "setting": "[2]; EAE experiment 2 (mild), p.o. ORY-2001 0.05, 0.5, 1 mg/kg, ORY-LSD1 90, 180 µg/kg, rasagiline 3 mg/kg", "result": "significantly reduced disease severity"}, {"measurement": "mice with mild clinical signs", "setting": "[2]; [3]", "result": 50, "unit": "%"}, {"measurement": "mice with no clinical signs", "setting": "[2]; [3]", "result": 10, "unit": "%"}, {"measurement": "duration of protection after short term treatment", "setting": "[2]; EAE experiment 2, 40 days after disease onset", "result": "long-lasting protective effect"}, {"measurement": "animals with severe signs (maximum clinical score 3.5–6)", "setting": "[2]; EAE experiment 2, highest dose tested", "result": "none"}, {"measurement": "relapse", "setting": "[2]; EAE experiment 2, lowest dose 0.05 mg/kg", "result": "suffered a relapse during the last week of follow-up"}, {"measurement": "clinical signs at the peak of the disease", "setting": "[2]; EAE sub-chronic phase, to day 26, p.o. ORY-2001 0.5 mg/kg, ORY-LSD1 180 µg/kg", "result": "reduced the clinical signs"}, {"measurement": "severity of symptoms in treated mice", "setting": "[2]; EAE sub-chronic phase, ORY-2001 0.5 mg/kg", "result": "displayed only mild symptoms"}]}
